Source: patent US20260355171A1, “INHIBITORS AND USES THEREFOR” (priority 2022, published 2026)

Columns and labels:
[1] = tested on: Omicron variant of SARS-CoV-2
[2] = tested on: Delta variant of SARS-CoV-2

NC(=O)C1CCN(c2ncccc2CNCc2cccc3[nH]ccc23)CC1 [Compound 22]
Titre of Omicron variant [1]: Significant reduction of titres
Titre of Delta variant [2]: Significant reduction of titres
